One block for each substance: values may come before it. No end group written: not given here.
Legend:
[1] = test system: serum antibody raised against f88-EFRH; test: Competitive inhibition by peptides within βAP of serum antibody raised against f88-EFRH (ELISA); type: binding; conditions: Nd = IC50 which cannot be detected by ELISA, read-out: Competitive inhibition of MICE SERUM antibody (IC50)
Description: The antibodies resulting from EFRH (SEQ ID NO:5) phage immunization are similar regarding their immunological properties to antibodies raised by direct injection with whole β-amyloid (Table 1). […] The high immunogenicity of filamentous phages enables the raising of antibodies against self-antigens.

[2] = test system: amyloid anti-aggregating antibody; conditions: Frenkel et al. 1998; ELISA; Nd = IC50 which cannot be detected by ELISA; read-out: Competitive inhibition of anti-aggregating antibody (IC50); cited from earlier work
[3] = test system: β-amyloid peptide 1-16 (EFRH-epitope); test: Immunization of Balb/C mice; serum Ig titers by ELISA against the EFRH-epitope (β-amyloid peptide 1-16); type: in vivo; conditions: i.p., filamentous phage as adjuvant, five injections; FIG. 10
Protocol: Four mice (named A, B, C, D) were immunized at two week intervals with 100 μg of MAP-[…] (SEQ ID NO:1)+adjuvant (either Complete Freund's or Incomplete Freund's adjuvant) by intraperitoneal injection, and two mice were immunized with H2O+adjuvant as a negative control. All mice were 8 week old female mice.
In experiments of antibody binding to β-amyloid peptide 1-16, 100 ng/well biotinylated β-amyloid peptides 1-16 were bound to streptavidin-coated microtiter plates for ½ h at room temperature. ELISA plates were previously coated with streptavidin for 16 h at 4° C. after washing, bound antibodies to β-peptide were detected by incubation with horseradish peroxidase-conjugated antibodies, as previously described in Frenkel et al. (1999). The Ig type was measured with rabit anti-mouse IgG and anti-mouse IgM labeled with horseradish peroxidase.
Two female mice 8 weeks old (named A and B) were immunized at approximately two week intervals with 200 μg of MAP-(EFRH)2+filamentous phage as adjuvant by intraperitoneal injection.
Two female mice 8 weeks old (named G and H) were immunized at approximately two week intervals with the streptavidin and biotinylated MAP-[…] (SEQ ID NO:1) complex (100 μg of MAP-[…] (SEQ ID NO:1) per mouse) by intraperitoneal injection without adjuvant.

Substance: DAEFRHD [peptide, residues 1-7 of AβP]
IC50 [1]: 5 µM
IC50 [2]: 0.9 µM

Substance: MAP-(EFRH)2: octavalent MAP carrying TyrGluPheArgHisTyrGluPheArgHis (SEQ ID NO:4), two EFRH epitopes per peptide (YEFRHYEFRH; also: octavalent lysine-core MAP)
Immune response (serum IgG titers) [3]: strong immune response

Substance: DAEFRH [peptide, residues 1-6 of AβP]
IC50 [1]: 3 µM
IC50 [2]: 0.8 µM

More lines, in order of falling IC50 [1], values ahead:

IC50 [1]: ~1000 µM
Substance: FRH: peptide, residues 4-6 of AβP (Amyloid-beta protein 40; UniProt P05067 675-677, looked up, fragment)
IC50 [2]: 3000 µM

IC50 [1]: 5 µM
Substance: DAEFRHDSG
IC50 [2]: 1 µM

IC50 [1]: 3 µM
Substance: βAP(1-40): full length β-amyloid peptide (1-40)
IC50 [2]: 0.8 µM

Source: US20050053575A1, “Antigenic product displaying multiple copies of an epitope of a deposit-forming polypeptide involved in plaque-forming diseases and methods of using same” (Ramot At Tel Aviv University Ltd, priority 2001, published 2005)
